Literature values as cited in patent US12274791B2, “Multiple unit dosage form having a therapeutic agent in combination with a nutritional supplement” (Bonafide Health, LLC, priority 2007, dated 2025).
Like-named read-outs stand apart in the source and are kept apart here.

## Chromium picolinate
rat, in vivo
  toxic effects: without toxic effects

## [Cl][Cr]([Cl])[Cl] [chromium chloride]
rats, levels several thousand times the upper limit of the ESADDI for chromium for humans (based on body weight)
  toxic effects: without toxic effects
